This passage reports Ki and EC50 results from patent US9000032B2, “Substituted cyclopentenes as therapeutic agents” (Allergan, Inc., priority 2013, dated 2015).

A word on the Ki: it is a measure of affinity in units of concentration, obtained from inhibition or displacement. Usually EC50 stands for the concentration needed to bring the measured effect to its halfway point.

For test [1], the target named is T1, EP2 (Homo sapiens, UniProt P43116). The test can be described thus: Competition radioligand binding, [3H]PGE2, EP2. Further details: expressed in transfected cells; membranes or whole cells. As to conditions: [3H]PGE2 competition, HEK 293 cells expressing human EP2. The protocol: Competition binding experiments were performed in a medium containing Hank's balanced salt solution, Hepes 20 mM, pH 7.3, membranes (˜[…] protein) or 2×10^5 cells from HEK 293 cells stably expressing human EP2 receptors, [^3H]PGE2 (10 nM) and various concentrations of test compounds in a total volume of 300 μl. Reaction mixtures were incubated at 23° C. for 60 min, and were filtered over Whatman GF IB filters under vacuum. Filters were washed three times with 5 ml ice-cold buffer containing 50 mM Tris/HCl (PH 7.3). Non-specific binding was estimated in the presence of excess unlabeled PGE2 (10 μM). Binding data fitted to the binding model for a single class of binding sites, using nonlinear regression analysis. IC50 values thus obtained were converted to Ki using the equation of Ki=(IC50/(1+[L]/KD) where [L] represents PGE2 concentration (10 nM) and KD the dissociation constant for [^3H]PGE2 at human EP2 receptors (40 nM).
T1 sequence (P43116 whole entry): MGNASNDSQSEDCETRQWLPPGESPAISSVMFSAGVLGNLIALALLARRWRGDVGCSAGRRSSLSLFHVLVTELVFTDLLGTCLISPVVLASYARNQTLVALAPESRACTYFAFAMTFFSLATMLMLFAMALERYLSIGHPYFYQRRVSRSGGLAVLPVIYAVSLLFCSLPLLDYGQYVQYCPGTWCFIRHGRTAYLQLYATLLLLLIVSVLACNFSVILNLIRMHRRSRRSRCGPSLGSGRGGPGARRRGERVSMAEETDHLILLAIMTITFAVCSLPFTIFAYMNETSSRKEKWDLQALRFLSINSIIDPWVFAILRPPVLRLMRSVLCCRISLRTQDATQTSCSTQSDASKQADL
(§1) HEK-293 cells stably expressing the human or feline FP receptor, or EP1, EP2, or EP4 receptors were washed with TME buffer, scraped from the bottom of the flasks, and homogenized for 30 sec using a Brinkman PT 10/35 polytron. TME buffer was added to achieve a final 40 ml volume in the centrifuge tubes (the composition of TME is 100 mM TRIS base, 20 mM MgCl2, […]; ION HCl is added to achieve a pH of 7.4).
(§2) The cell homogenate was centrifuged at 19000 rpm for 20 min at 4° C. using a Beckman Ti-60 rotor. The resultant pellet was resuspended in TME buffer to give a final 1 mg/ml protein concentration, as determined by Biorad assay. Radioligand binding competition assays vs. [^3H-]17-phenyl PGF2α (5 nM) were performed in a 100 μl volume for 60 min. Binding reactions were started by adding plasma membrane fraction. The reaction was terminated by the addition of 4 ml ice-cold TRIS-HCl buffer and rapid filtration through glass fiber GF/B filters using a Brandel cell harvester. The filters were washed 3 times with ice-cold buffer and oven dried for one hour.
(§3) [^3H-] PGE2 (specific activity 180 Ci mmol) was used as the radio ligand for EP receptors. [^3H] 17-phenyl PGF2α was employed for FP receptor binding studies. Binding studies employing EP1, EP2, EP4 and FP receptors were performed in duplicate in at least three separate experiments. A 200 μl assay volume was used. Incubations were for 60 min at 25° C. and were terminated by the addition of 4 ml of ice-cold 50 mM TRIS-HCl, followed by rapid filtration through Whatman GF/B filters and three additional 4 ml washes in a cell harvester (Brandel). Competition studies were performed using a final concentration of 5 nM [^3H]-PGE2, or 5 nM [^3H] 17-phenyl PGF2α and non-specific binding determined with 10^−5 M of unlabeled PGE2, or 17-phenyl PGF2α according to receptor subtype studied.

The target in test [2] is T2, hEP4/Gqs5 (Homo sapiens, UniProt P35408).
T2 construct: expressed in transfected cells
T2 sequence (P35408 whole entry): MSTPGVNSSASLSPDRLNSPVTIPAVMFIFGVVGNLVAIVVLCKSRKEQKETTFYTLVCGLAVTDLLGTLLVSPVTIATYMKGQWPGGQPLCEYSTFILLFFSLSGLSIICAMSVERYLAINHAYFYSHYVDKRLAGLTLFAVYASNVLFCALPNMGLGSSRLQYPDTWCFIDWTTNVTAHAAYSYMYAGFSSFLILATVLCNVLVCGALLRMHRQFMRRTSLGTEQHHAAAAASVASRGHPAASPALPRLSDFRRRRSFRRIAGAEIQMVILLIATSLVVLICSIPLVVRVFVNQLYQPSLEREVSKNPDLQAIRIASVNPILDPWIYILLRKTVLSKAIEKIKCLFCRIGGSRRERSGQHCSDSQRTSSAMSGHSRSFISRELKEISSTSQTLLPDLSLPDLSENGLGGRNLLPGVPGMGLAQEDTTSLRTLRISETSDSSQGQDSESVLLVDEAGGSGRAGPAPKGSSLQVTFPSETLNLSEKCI
Put plainly: FLIPR calcium signal, EP4. The format is cell-based. As to conditions: HEK-293(EBNA) hEP4/Gqs5, read-out: EP4 Ca2+ EC50. The protocol:
(§4) HEK-293(EBNA) cells, stably expressing one type or subtype of recombinant human prostaglandin receptors (prostaglandin receptors expressed: hDP/Gqs5; hEP1, hEP2/Gqs5; hEP3A/Gqi5; hEP4/Gqs5; hFP; hIP; hTP), were cultured in 100 mm culture dishes in high-glucose DMEM medium containing 10% fetal bovine serum, 2 mM I-glutamine, 250 μg/ml geneticin (G418) and 200 μg/ml hygromycin B as selection markers, and 100 units/ml penicillin G, 100 μg/ml streptomycin and 0.25 μg/ml amphotericin B.
(§5) Cells were seeded at a density of 5×10^4 cells per well in Biocoat® Poly-D-lysine-coated black-wall, clear-bottom 96-well plates (Becton-Dickinson) and allowed to attach overnight in an incubator at 37° C. Cells were then washed two times with HBSS-HEPES buffer (Hanks Balanced Salt Solution without bicarbonate and phenol red, 20 mM HEPES, pH 7.4) using a Denley Cellwash plate washer (Labsystems). After 45 minutes of dye-loading in the dark, using the calcium-sensitive dye Fluo-4 AM at a final concentration of 2 μM, plates were washed four times with HBSS-HEPES buffer to remove excess dye leaving 100 μl, in each well. Plates were re-equilibrated to 37° C. for a few minutes.
(§6) Cells were excited with an Argon laser at 488 nm, and emission was measured through a 510-570 nm bandwidth emission filter (FLIPR™, Molecular Devices, Sunnyvale, Calif.). Drug solution was added in a 50 μL volume to each well to give the desired final concentration. The peak increase in fluorescence intensity was recorded for each well. On each plate, four wells each served as negative (HBSS-HEPES buffer) and positive controls (standard agonists: BW245C (hDP); PGE2(hEP1, hEP2/Gqs5; hEP3A/Gqi5; hEP4/Gqs5); PGF2α (hFP); carbacyclin (hIP); U-46619 (hTP), depending on receptor). The peak fluorescence change in each drug-containing well was then expressed relative to the controls.
(§7) Compounds were tested in a high-throughput (HTS) or concentration-response (CoRe) format. […]

The target of test [3] is T3, hEP3A/Gqi5 (Homo sapiens, UniProt P43115).
T3 construct: expressed in transfected cells
T3 sequence (P43115 1-390): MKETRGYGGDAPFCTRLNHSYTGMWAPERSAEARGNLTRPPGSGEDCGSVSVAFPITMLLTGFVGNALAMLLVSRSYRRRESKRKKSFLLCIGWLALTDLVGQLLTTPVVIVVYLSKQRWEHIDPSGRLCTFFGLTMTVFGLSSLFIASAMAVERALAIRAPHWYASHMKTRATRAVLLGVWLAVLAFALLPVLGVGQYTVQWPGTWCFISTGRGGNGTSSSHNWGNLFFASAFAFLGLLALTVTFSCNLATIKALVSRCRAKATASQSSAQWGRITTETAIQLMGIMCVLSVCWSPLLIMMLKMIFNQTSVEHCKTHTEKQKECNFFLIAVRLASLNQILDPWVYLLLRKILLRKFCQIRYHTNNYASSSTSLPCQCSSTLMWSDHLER
Put plainly: FLIPR calcium signal, EP3. Conditions: read-out: OTHER RECEPTORS Ca2+ EC50: EP3. The format is cell-based. The protocol:
as §4, §5, §6
(§8) Compounds were tested in a high-throughput (HTS) or concentration-response (CoRe) format. In the HTS format, forty-four compounds per plate were examined in duplicates at a concentration of 10^−5 M. To generate concentration-response curves, four compounds per plate were tested in duplicates in a concentration range between 10^−5 and 10^−11. The duplicate values were averaged. In either, HTS or CoRe format each compound was tested on at least 3 separate plates using cells from different passages to give an n≧3.

The target in test [4] is T4, hEP2/Gqs5 (Homo sapiens, UniProt P43116).
T4 construct: expressed in transfected cells
T4 sequence (P43116 whole entry): as the sequence (P43116 whole entry) above
Put plainly: FLIPR calcium signal, EP2. Conditions: HEK-293(EBNA) hEP2/Gqs5, read-out: EP2 Ca2+ EC50. Type of test: cell-based. The protocol: as §4, §5, §6, §8

For test [5], the target named is T1, EP2. Put plainly: cAMP assay, HEK-EBNA cells expressing EP2. Type of test: cell-based. On the set-up: expressed in transfected cells; host or cells: HEK-EBNA cells. The protocol:
A 384-well drug plate was prepared to contain 6 test compounds, PGE2 and cAMP in 16 serial dilutions in triplicate, using a Biomek station. HEK-EBNA cells expressing a target PG receptor subtype (EP2 or EP4) were suspended in a stimulation buffer (HBSS, 0.1% BSA, 0.5 mM IBMX and 5 mM HEPES, pH 7.4) in a density of 10^4 cells/5 μL. The reaction was initiated by mixing 5 μL drug dilutions with 5 μL of HEK-EBNA cells in a well, carried out for 30 min at room temperature, and followed by the addition of 5 μL anti-cAMP acceptor beads in the control buffer with Tween-20 (25 mM NaCl, 0.03% Tween-20, 5 mM HEPES, pH 7.4). After 30 min in the dark at room temperature, the mixtures were incubated with 15 μL biotinylated-cAMP/strepavidin donor beads in Lysis/Detection buffer (0.1% BSA, 0.3% Tween-20 and 5 mM HEPES, pH 7.4) for 45 min at the room temperature. Fluorescence changes were read using a Fusion-alpha HT microplate reader.
In general terms: Changes in cAMP serve as a functional read-out for many G protein-coupled receptors.

Test [6] has as its target T5, hDP/Gqs5 (Homo sapiens, UniProt Q13258).
T5 construct: expressed in transfected cells
T5 sequence (Q13258 1-359): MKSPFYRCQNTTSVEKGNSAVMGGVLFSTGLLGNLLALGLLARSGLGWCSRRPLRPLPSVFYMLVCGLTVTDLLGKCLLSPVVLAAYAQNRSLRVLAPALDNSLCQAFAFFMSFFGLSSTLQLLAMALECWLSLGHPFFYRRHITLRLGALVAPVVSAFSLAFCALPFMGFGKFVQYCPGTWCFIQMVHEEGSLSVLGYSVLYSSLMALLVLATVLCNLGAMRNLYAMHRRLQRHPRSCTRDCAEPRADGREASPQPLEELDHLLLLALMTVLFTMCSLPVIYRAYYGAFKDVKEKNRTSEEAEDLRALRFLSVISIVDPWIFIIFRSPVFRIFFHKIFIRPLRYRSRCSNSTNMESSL
Put plainly: FLIPR calcium signal, DP. Conditions: NA listed after 'NA:', read-out: OTHER RECEPTORS Ca2+ EC50: DP. The format is cell-based. The protocol:
as §4, §5, §6, §7

The target of test [7] is T6, EP4 receptors (Homo sapiens, UniProt P35408).
T6 construct: expressed in transfected cells; membrane fraction
T6 sequence (P35408 whole entry): as the sequence (P35408 whole entry) above
Put plainly: Radioligand binding, [3H]PGE2, EP4. As to conditions: [3H]PGE2 competition, HEK-293 cells expressing EP4; read-out: EP4 Ki EC50. The protocol:
as §1, §2, §3

Regarding `C#CC1=C(c2ccc(C(O)CCCCC)cc2)[C@@H](CCCc2ccc(C(=O)O)s2)CC1` (single isomer, unassigned) [compound 1], the Ki amounted to 2 nM in test [1] and 2820 nM in test [7]. Also, the concentration for a half-maximal effect (EC50) in test [2] was greater than 10000 nM; in test [3] it was 171 nM; in test [4] it was 48 nM; in test [5], 0.2 nM; in test [6], 7730 nM.

For the compound `C#CC1=C(c2ccc(C(O)CCCCC)cc2)[C@@H](CCCc2ccc(C(=O)O)s2)CC1` (single isomer, unassigned) [compound 2], the Ki in test [1] amounted to 7 nM; in test [7], 712 nM. Moreover, the values for the EC50 in test [3], in test [4] and in test [6] were 1540 nM, 22 nM and greater than 10000 nM, respectively.

In the case of `CCCCCC(O)c1ccc(C2=C(C#CCO)CC[C@@H]2CCCc2ccc(C(=O)O)s2)cc1` (stereo partly shown) [compound 3], the Ki turned out to be 17 nM in test [1] and 783 nM in test [7]. The EC50 is greater than 10000 nM in test [2]; 7400 nM in test [3]; 0.5 nM in test [4]; 1.5 nM in test [5]; 220 nM in test [6].

With `CCCCCC(O)c1ccc(C2=C(C#Cc3ccccc3)CC[C@@H]2CCCc2ccc(C(=O)O)s2)cc1` (stereo partly shown) [compound 4], the inhibition constant (Ki) came to 2530 nM in test [1] and 8190 nM in test [7]. For the same compound, the EC50 was greater than 10000 nM in test [2], 7080 nM in test [3], 513 nM in test [4] and 140 nM in test [5].
